How the values were obtained:
Assay type in all cases: biochemical
SAPK3/p38g = target: T1, SAPK3/p38g (Homo sapiens, UniProt P53778); test: Protein kinase panel selectivity screen, SAPK3/p38g; conditions: 1 μM compound; [ATP] 5 μM
T1 construct: Dundee University (panel)
Experimental: (§1) The names of the 29 kinases comprising the selectivity screen, as well as the ATP concentrations used in each kinase case, are given in Table 5. The kinase assays were carried out as described previously.
(§2) Compound XIV at a concentration of 1 μM was screened in the 29-kinase panel (Dundee University) and the results are shown bellow in Table 6.

MKK1 = target: T2, MKK1 (Homo sapiens, UniProt Q02750); test: Protein kinase panel selectivity screen, MKK1; conditions: 1 μM compound; [ATP] 5 μM
T2 construct: Dundee University (panel)
Experimental: as §1, §2

JNK/SAPK1c = target: T3, JNK/SAPK1c (Homo sapiens, UniProt P45983); test: Protein kinase panel selectivity screen, JNK/SAPK1c; conditions: 1 μM compound
T3 construct: Dundee University (panel)
Experimental: as §1, §2

T3 sequence (P45983 whole entry): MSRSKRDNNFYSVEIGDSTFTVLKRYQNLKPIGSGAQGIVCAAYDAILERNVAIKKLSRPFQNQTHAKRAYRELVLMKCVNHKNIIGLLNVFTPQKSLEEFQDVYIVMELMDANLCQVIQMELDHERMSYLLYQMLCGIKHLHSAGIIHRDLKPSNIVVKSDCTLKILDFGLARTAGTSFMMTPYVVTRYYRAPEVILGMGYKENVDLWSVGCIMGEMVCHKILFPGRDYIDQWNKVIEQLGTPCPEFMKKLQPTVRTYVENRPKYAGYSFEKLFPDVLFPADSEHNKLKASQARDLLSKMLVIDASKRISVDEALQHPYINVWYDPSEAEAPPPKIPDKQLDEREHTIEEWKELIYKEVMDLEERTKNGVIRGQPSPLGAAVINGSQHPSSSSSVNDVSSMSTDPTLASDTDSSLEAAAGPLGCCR
T1 sequence (P53778 whole entry): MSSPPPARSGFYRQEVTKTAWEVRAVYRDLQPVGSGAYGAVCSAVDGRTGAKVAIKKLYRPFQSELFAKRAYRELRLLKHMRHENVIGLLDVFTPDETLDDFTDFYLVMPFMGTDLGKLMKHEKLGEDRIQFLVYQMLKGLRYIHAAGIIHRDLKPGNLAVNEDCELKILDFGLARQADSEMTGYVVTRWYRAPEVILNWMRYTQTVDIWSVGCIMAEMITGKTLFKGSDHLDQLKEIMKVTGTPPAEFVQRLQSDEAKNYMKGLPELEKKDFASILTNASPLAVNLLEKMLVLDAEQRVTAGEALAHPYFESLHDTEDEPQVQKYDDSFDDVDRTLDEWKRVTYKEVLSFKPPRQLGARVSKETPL
T2 sequence (Q02750 whole entry, species assumed): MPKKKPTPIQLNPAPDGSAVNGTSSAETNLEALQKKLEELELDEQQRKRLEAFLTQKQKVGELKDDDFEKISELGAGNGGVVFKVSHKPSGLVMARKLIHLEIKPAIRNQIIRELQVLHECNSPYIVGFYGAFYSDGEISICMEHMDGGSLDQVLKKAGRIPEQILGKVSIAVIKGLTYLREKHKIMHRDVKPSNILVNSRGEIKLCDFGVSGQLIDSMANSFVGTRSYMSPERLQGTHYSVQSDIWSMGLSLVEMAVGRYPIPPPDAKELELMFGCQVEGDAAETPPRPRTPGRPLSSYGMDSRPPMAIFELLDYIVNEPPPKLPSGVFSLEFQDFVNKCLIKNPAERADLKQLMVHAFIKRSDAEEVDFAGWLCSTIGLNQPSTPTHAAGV

`Clc1ccc(Nc2nccc(-c3nccs3)n2)cn1` [Compound XIV, (6-Chloro-pyridin-3-yl)-(4-thiazol-2-yl-pyrimidin-2-yl)-amine] showed an activity at 1 µM (SAPK3/p38g) of 88 ± 3%, an activity at 1 µM (MKK1) of 83 ± 4% and an inhibition at 1 µM (JNK/SAPK1c) of roughly 40%. For the same compound, the activity at 1 µM (JNK/SAPK1c; [ATP] 20 μM) was 56 ± 4%.
